Test results taken from patent publication US10000498B2, “Selective proton coupled folate transporter and folate receptor, and GARFTase inhibitor compounds and methods of using the same” (Duquesne University of the Holy Spirit, priority 2008, dated 2018).
Entries after “also recorded” stand apart in the source; their conditions may differ. Where two headings read alike, the source gives them in different places.

Columns and labels:
[1] = target: FRα (Homo sapiens, UniProt P15328); assay: FRα binding affinity relative to folic acid; settings: folic acid set to 1
[2] = target: T1, GARFTase (Homo sapiens, UniProt P22102); assay: In situ GARFTase assay (14C-glycine incorporation into formyl glycinamide ribonucleotide); format: cell-based; settings: mean IC50, SEM in parentheses
T1 construct: In the in situ GARFTase assay, incorporation of ^14C-glycine into formyl glycinamide ribonucleotide was measured; endogenous in cells
T1 sequence (P22102 1-1010): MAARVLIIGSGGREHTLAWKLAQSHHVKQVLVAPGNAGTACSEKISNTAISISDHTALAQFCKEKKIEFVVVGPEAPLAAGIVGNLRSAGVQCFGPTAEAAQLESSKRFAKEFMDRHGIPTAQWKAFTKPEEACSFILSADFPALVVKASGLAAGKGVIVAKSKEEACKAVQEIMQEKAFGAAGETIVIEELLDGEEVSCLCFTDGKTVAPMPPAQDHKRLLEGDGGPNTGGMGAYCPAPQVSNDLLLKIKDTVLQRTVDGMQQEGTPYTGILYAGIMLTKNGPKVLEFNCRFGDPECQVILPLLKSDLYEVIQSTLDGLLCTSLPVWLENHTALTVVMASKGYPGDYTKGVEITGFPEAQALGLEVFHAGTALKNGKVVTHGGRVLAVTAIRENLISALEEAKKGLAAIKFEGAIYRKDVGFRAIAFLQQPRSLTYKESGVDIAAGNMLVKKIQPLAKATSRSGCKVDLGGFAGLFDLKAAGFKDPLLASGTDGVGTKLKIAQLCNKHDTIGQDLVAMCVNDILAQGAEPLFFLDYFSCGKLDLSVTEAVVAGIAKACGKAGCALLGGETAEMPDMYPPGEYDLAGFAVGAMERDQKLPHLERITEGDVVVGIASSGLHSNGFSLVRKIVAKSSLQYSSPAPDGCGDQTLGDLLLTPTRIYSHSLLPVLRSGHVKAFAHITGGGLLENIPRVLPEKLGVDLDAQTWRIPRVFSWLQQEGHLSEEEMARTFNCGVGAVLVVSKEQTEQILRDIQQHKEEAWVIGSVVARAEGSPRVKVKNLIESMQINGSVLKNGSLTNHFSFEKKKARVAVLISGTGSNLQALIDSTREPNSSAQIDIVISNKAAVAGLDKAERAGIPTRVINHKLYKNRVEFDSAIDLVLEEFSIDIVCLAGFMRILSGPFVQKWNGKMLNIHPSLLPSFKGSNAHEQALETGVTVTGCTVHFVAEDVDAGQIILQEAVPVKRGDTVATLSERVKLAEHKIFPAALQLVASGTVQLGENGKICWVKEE

[3] = tested on: KB cells; assay: Nucleoside/AICA protection from growth inhibition in KB cells; format: cell-based, human
[4] = tested on: KB human tumor cells (hRFC/FRα); assay: Growth inhibition of KB human tumor cells (Cell Titer-blue cytotoxicity screen), with or without folic acid; format: cell-based; settings: for IC50: Homo sapiens
[5] = target: T2, hPCFT (Homo sapiens, UniProt Q96NT5); assay: Inhibition of [3H]MTX transport by hPCFT; format: cell-based; settings: initial studies over a range of pH values
T2 construct: expressed in transfected cells
T2 sequence (Q96NT5 1-459): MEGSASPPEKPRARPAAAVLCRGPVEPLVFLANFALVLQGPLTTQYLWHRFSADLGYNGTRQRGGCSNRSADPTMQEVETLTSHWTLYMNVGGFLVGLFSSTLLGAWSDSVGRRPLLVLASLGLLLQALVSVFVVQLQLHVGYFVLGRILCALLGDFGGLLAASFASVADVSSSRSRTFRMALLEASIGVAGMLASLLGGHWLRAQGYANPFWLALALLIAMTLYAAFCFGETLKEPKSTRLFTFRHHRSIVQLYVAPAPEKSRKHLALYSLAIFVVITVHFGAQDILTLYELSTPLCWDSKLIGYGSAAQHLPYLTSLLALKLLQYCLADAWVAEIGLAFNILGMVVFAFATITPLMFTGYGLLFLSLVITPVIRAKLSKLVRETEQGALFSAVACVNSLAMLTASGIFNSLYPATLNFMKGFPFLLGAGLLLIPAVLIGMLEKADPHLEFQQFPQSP

[6] = tested on: RT16 cells (hFRα-expressing Chinese hamster ovary); assay: Growth inhibition of FR-expressing RT16 CHO cells, with or without folic acid; format: cell-based; settings: for IC50: Cricetulus griseus
[7] = tested on: PC43-10 cells (hRFC-expressing Chinese hamster ovary); assay: Growth inhibition of hRFC-expressing PC43-10 CHO cells; format: cell-based
[8] = target: T3, purified recombinant mouse GARFTase (Mus musculus, UniProt Q64737); assay: In vitro GARFTase inhibition assay; format: biochemical
T3 sequence (Q64737 2-1010 limits assumed): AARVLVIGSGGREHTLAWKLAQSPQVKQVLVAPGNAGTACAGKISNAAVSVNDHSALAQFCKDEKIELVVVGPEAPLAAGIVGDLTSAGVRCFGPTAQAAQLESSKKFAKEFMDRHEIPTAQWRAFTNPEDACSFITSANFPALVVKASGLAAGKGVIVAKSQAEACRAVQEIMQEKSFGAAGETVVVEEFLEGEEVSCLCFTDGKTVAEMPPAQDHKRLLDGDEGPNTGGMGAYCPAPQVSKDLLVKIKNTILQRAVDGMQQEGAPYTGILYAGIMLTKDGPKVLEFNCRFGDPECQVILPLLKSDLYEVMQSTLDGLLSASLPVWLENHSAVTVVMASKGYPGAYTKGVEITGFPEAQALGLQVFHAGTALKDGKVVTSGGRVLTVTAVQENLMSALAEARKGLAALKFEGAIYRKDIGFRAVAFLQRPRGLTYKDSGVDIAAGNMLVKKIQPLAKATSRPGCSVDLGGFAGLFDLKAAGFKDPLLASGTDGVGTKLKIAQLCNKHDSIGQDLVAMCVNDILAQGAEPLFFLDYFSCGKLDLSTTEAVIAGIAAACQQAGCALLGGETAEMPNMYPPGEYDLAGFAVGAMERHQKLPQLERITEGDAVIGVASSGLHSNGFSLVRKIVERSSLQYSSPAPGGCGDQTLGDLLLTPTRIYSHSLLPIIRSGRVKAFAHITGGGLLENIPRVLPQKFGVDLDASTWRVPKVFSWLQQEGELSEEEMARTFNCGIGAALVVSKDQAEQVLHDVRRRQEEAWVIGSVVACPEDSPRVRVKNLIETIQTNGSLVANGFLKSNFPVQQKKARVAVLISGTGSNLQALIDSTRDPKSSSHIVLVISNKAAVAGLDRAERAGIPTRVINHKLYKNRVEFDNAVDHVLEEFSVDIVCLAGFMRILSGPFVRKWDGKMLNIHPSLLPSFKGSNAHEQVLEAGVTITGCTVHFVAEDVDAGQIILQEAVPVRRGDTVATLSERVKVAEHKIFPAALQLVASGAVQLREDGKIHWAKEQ

FRα, sequence (P15328 25-234): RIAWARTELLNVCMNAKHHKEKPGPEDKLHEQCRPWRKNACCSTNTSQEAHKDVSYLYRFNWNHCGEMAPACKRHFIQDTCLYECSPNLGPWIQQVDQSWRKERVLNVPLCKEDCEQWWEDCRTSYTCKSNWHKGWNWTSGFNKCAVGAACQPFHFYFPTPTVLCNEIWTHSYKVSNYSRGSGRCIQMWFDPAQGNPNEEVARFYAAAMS

## Nc1nc2[nH]c(CCCCc3ccc(C(=O)N[C@@H](CCC(=O)O)C(=O)O)s3)cc2c(=O)[nH]1 [AAG154353, (S)-2-({5-[4-(2-amino-4-oxo-4,7-dihydro-3H-pyrrolo[2,3-d]pyrimidin-6-yl)-butyl]thiophene-2-carbonyl}-amino)-pentanedioic acid]
[1]
  FRα binding affinity compared to folic acid: very high binding affinities
[2]
  IC50: 0.63 nM
[3]; AICA 320 μM
  Effect of 5-amino-4-imidazolecarboxamide (AICA) on growth inhibition of KB cells: completely protected
[3]; adenosine 60 μM
  Effect of adenosine on growth inhibition of KB cells: completely protective
[3]; thymidine 10 μM
  Effect of thymidine on growth inhibition of KB cells: did not alter the growth inhibitory effects
[4]
  Effect of folic acid co-treatment on growth inhibition of KB cells: completely reversed growth inhibition
[4]; read-out: Growth inhibition (IC50, nM) hRFC/FRα KB
  IC50: 0.25 nM
[4]; read-out: Growth inhibition (IC50, nM) hRFC/FRα KB (+FA)
  IC50: > 1000 nM
[5]
  Increased inhibition of hPCFT transport at acid (pH<7) over neutral (pH>7) conditions: 2-3 fold
[6]
  Growth inhibition / FR-targeted activity toward RT16 cells (in words): high level of FR-targeted activity
[6]; RT16, read-out: Growth inhibition (IC50, nM) hFRα RT16
  IC50: 2 nM
[6]; RT16, read-out: Growth inhibition (IC50, nM) hFRα RT16 (+FA)
  IC50: > 1000 nM
[7]
  Growth inhibition of hRFC-expressing PC43-10 cells (in words): Neither AAG154353 and AAG154360 showed appreciable growth inhibition; also recorded: nearly complete lack of drug activity
[7]; Cricetulus griseus, PC43-10, read-out: Growth inhibition (IC50, nM) hRFC PC43-10
  IC50: > 1000 nM
[8]
  IC50: 60 nM
